Measured values: the supplement of paper PMC10307832

Tests used:
Assay in all cases: relative viability (nuclei count vs DMSO), 5 days (fraction); higher = more cells survive
RO-3306 + Lapatinib = compound: C1=CC2=C(C=CC(=C2)C=C3C(=O)NC(=NCC4=CC=CS4)S3)N=C1 [RO-3306] + CS(=O)(=O)CCNCc1ccc(-c2ccc3ncnc(Nc4ccc(OCc5cccc(F)c5)c(Cl)c4)c3c2)o1 [Lapatinib] (partner 2 µM)
Summary of the method: (§1)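 Medians of duplicate plates are given as relative viability. That measure is the nuclei count in treated wells divided by the count in vehicle wells. Counts were taken on 4× images of lung cancer cell lines in 1536-well plates, 5 days after pin-tool dosing the day after seeding with one drug alone or a fixed anchor-drug dose plus five library-drug doses (not always all listed) in √10 steps.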

RO-3306 + OSI-027 = compound: C1=CC2=C(C=CC(=C2)C=C3C(=O)NC(=NCC4=CC=CS4)S3)N=C1 [RO-3306] + COc1cccc2cc(-c3nc([C@H]4CC[C@H](C(=O)O)CC4)n4ncnc(N)c34)[nH]c12 [OSI-027] (partner 0.5 µM)
Summary of the method: as §1

RO-3306 + Luminespib = compound: C1=CC2=C(C=CC(=C2)C=C3C(=O)NC(=NCC4=CC=CS4)S3)N=C1 [RO-3306] + CCNC(=O)c1noc(-c2cc(C(C)C)c(O)cc2O)c1-c1ccc(CN2CCOCC2)cc1 [Luminespib] (partner 0.01 µM)
Summary of the method: as §1

[1] = compound: O=S(=O)(c1ccccc1)N(CC(F)(F)F)c1ccc(C(O)(C(F)(F)F)C(F)(F)F)cc1 + CC(=O)c1c(C)c2cnc(Nc3ccc(N4CCNCC4)cn3)nc2n(C2CCCC2)c1=O [Palbociclib] (partner 0.5 µM)
Summary of the method: as §1

| Cell Line | relative viability (RO-3306 + Lapatinib; first compound 0.01 µM) | relative viability (RO-3306 + Lapatinib; first compound 0.03162 µM) | relative viability (RO-3306 + Lapatinib; first compound 0.1 µM) | relative viability (RO-3306 + Lapatinib; first compound 0.3162 µM) | relative viability (RO-3306 + Lapatinib; first compound 1 µM) | relative viability (RO-3306 + OSI-027; first compound 0.01 µM) | relative viability (RO-3306 + OSI-027; first compound 0.03162 µM) | relative viability (RO-3306 + OSI-027; first compound 0.1 µM) | relative viability (RO-3306 + OSI-027; first compound 0.3162 µM) | relative viability (RO-3306 + OSI-027; first compound 1 µM) | relative viability (RO-3306 + Luminespib; first compound 0.01 µM) | relative viability (RO-3306 + Luminespib; first compound 0.3162 µM) | relative viability (RO-3306 + Luminespib; first compound 1 µM) | relative viability ([1]; first compound 0.8 µM) | relative viability ([1]; first compound 2.53 µM) | relative viability ([1]; first compound 8 µM) | relative viability (RO-3306 + Luminespib; first compound 0.03162 µM) | relative viability (RO-3306 + Luminespib; first compound 0.1 µM) |
| --- | --- | --- | --- | --- | --- | --- | --- | --- | --- | --- | --- | --- | --- | --- | --- | --- | --- | --- |
| NCI-H23 | 1 | 1.02 | 1.05 | 1.12 | 0.748 | 0.531 | 0.462 | 0.575 | 0.519 | 0.403 | 0.237 | 0.216 | 0.204 | 0.484 | 0.526 | 0.478 | – | – |
| NCI-H2405 | 1.03 | 1.04 | 1.01 | 1.09 | 1.01 | 0.609 | 0.591 | 0.629 | 0.614 | 0.626 | 0.753 | 0.607 | 0.7 | 0.554 | 0.506 | 0.55 | 0.705 | 0.849 |
| HARA | 0.763 | 0.627 | 0.758 | 0.687 | 0.535 | 0.661 | 0.449 | 0.527 | 0.612 | 0.436 | 0.485 | 0.455 | 0.679 | 0.246 | 0.244 | 0.27 | 0.509 | 0.676 |
| HCC-44 | 0.976 | 0.953 | 0.957 | 1.07 | 0.719 | 0.371 | 0.441 | 0.434 | 0.402 | 0.387 | 1.2 | 1.11 | 0.922 | 0.982 | 0.913 | 0.903 | 1.13 | 1.02 |
| CAL-12T | 0.61 | – | – | 0.73 | 0.591 | 0.378 | 0.615 | 0.585 | 0.616 | 0.597 | 0.68 | 0.433 | 0.604 | 0.318 | 0.33 | 0.412 | 0.517 | 0.228 |
| NCI-H838 | 1.02 | 0.6 | 0.951 | 1.08 | 0.902 | 0.334 | 0.394 | 0.35 | 0.412 | 0.373 | 0.523 | 0.316 | 0.221 | 0.241 | 0.244 | 0.276 | 0.274 | 0.24 |
| LK-2 | 0.931 | 0.705 | 0.886 | 0.88 | 0.985 | 0.209 | – | 0.157 | 0.17 | 0.202 | 0.187 | 0.167 | 0.228 | 0.508 | 0.742 | 0.705 | – | 0.18 |
| NCI-H358 | 0.5 | 0.431 | 0.39 | 0.495 | 0.425 | 0.587 | 0.658 | 0.79 | 0.741 | 0.59 | 0.408 | 0.316 | 0.229 | – | 0.129 | 0.116 | 0.292 | 0.376 |
| SW 1573 | 1.11 | 1.01 | 1.17 | 1.12 | 0.947 | 0.683 | – | 0.603 | 0.607 | 0.578 | 0.205 | 0.302 | 0.217 | 0.449 | 0.323 | 0.356 | 0.218 | 0.198 |
| LCLC-103H | – | – | – | – | – | 0.479 | 0.392 | 0.45 | 0.418 | 0.508 | 0.872 | 0.93 | 1.03 | 0.503 | 0.523 | 0.488 | 0.882 | 0.955 |
| HCC-827 | 0.226 | 0.21 | 0.17 | 0.214 | 0.17 | 0.855 | 0.59 | 0.808 | 0.8 | 0.8 | 0.502 | 0.586 | 0.786 | 0.513 | 0.418 | 0.388 | 0.433 | 0.588 |
| NCI-H1666 | 0.593 | 0.407 | 0.609 | 0.61 | 0.457 | 0.747 | 0.73 | 0.749 | 0.817 | 0.853 | 0.929 | 1.05 | 0.891 | 0.645 | 0.657 | 0.601 | 0.883 | 1.05 |
| NCI-H460 | 1.64 | – | 0.958 | 1.18 | 1.25 | 0.613 | 0.492 | 0.654 | 0.835 | 0.605 | 0.033 | 0.0289 | 0.0305 | 0.16 | 0.133 | 0.113 | 0.029 | 0.0336 |
| NCI-H2087 | 0.894 | 1.12 | 1.02 | 0.968 | 0.889 | 0.534 | 0.462 | 0.529 | 0.539 | 0.538 | 0.196 | 0.23 | 0.17 | 0.253 | 0.183 | 0.261 | 0.175 | 0.149 |
| NCI-H2085 | 0.726 | 0.746 | 0.798 | 0.727 | 0.757 | 0.598 | 0.728 | 0.642 | 0.664 | 0.635 | 0.377 | 0.437 | 0.46 | 0.432 | 0.431 | 0.413 | 0.499 | 0.517 |
| NCI-H1299 | 1 | 1.03 | 0.977 | 0.977 | 0.986 | – | – | – | – | – | – | – | – | – | – | – | – | – |
| ChaGo-K-1 | – | – | – | – | – | 0.59 | 0.365 | 0.455 | 0.474 | 0.341 | 0.594 | 0.56 | 0.32 | 1 | 0.895 | 0.877 | 0.585 | 0.469 |
| A-427 | 1.08 | 0.986 | 1.05 | 1.03 | 0.448 | 0.459 | 0.457 | 0.423 | 0.451 | 0.497 | 0.94 | 0.884 | 1 | 0.449 | 0.454 | 0.476 | 0.867 | 0.928 |
| NCI-H2170 | 0.254 | 0.302 | 0.272 | 0.265 | 0.302 | 0.819 | 0.702 | 0.726 | 0.655 | 0.697 | 0.485 | 0.669 | 0.639 | 0.433 | 0.353 | 0.356 | 0.803 | 0.419 |
